According to patent US20260191982A1, “ANTI-BASAL CELL ADHESION MOLECULE ANTIBODY-DRUG CONJUGATE” (Genome & Company, Inc., priority 2022, published 2026):
Non-standard residues stand in square brackets, D forms with d. Residues, ends and D or L forms follow the SMILES beside them. Groups on a side chain read outwards from the residue. *: point of attachment. DM1Mal(CH2)2CO = COc1cc2cc(c1Cl)N(C)C(=O)C[C@H](OC(=O)[C@H](C)N(C)C(=O)CCSC1CC(=O)N(CCC(=O)*)C1=O)[C@]1(C)O[C@H]1[C@H](C)[C@@H]1C[C@@](O)(NC(=O)O1)[C@H](OC)/C=C/C=C(\C)C2; X2 = CC(=O)N[C@@H](CSC1CC(=O)N(CCC(=O)*)C1=O)C(=O)O; Dolaproine = CO[C@@H]([C@@H]1CCCN1)[C@@H](C)C(=O)O; Dil = CC[C@H](C)[C@H](NC)[C@@H](CC(=O)O)OC; NMe2Val = CC(C)[C@@H](C(=O)*)N(C)C; PEG5 = NCCOCCOCCOCCOCCOCCC(=O)O; Cit = NC(=O)NCCC[C@H](N)C(=O)O; PEG4 = NCCOCCOCCOCCOCCC(=O)O

Molecular target: T1, Cathepsin B (Homo sapiens, UniProt P07858)
T1 construct: purchased R&D Systems, Bio-Techne AG 953-CY-010
Assay: Cat B-induced cleavage, in vitro enzymatic cleavage assay with UHPLC-MS/MS
Format: biochemical
Details: for Ratio (T1/2 Compound/T1/2 Reference): versus Cys-MC-Val-Cit-PABC-MMAF; for half-life at 10 μM: human, recombinant human Cathepsin B (activated), 10 μM test compound, Cathepsin B 2 μg/mL, MES buffer pH 5.0, 37° C., read-out: T1/2 Compound
Procedure: Cat B-induced cleavage of the antibody-drug conjugates can be evaluated according to the in vitro enzymatic cleavage assay using recombinant human Cathepsin B (commercially acquired from R&D Systems, Bio-Techne AG, cat #. 953-CY-010 in the form of a precursor) and UHPLC-MS/MS analysis.
Briefly, the enzyme is reconstituted in 25 mM 2-(N-morpholino) ethanesulfonic acid (MES) buffer adjusted at pH 5.0 with a 1M NaOH solution and then activated with a […] solution of Dithiothreitol (DDT) at room temperature for at least 15 min. The in vitro enzymatic assay is conducted at 37° C. with the test compound at a concentration of 10 μM (when the test compound is a linker according to the present invention wherein the maleimide group has been quenched in the presence of acetyl-cysteine (Ac-Cys-OH)) or 2.5 μM (when the test compound is an antibody-drug conjugate) in the presence of activated recombinant human Cathepsin B enzyme at 2 μg/mL in a 25 mM MES buffer pH 5.0. The enzymatic cleavage reaction is stopped for each defined time point by mixing a 1/10 ratio volume of acetonitrile+0.1% formic acid (FA) containing an internal standard (warfarine at 0.5 μM). Analysis is conducted using a Waters Acquity UPLC System coupled to a Waters Xevo TQ triple quad mass spectrometer. UHPLC is conducted with a HSS T3 1.8 μm 50×2.1 mm column (Waters) heated at 45° C. and fitted with 2 μm insert filter pre-column (Waters), and solvent systems A1 (H2O+0.1% FA) and B1 (acetonitrile+0.1% FA) at a flow rate of 0.6 mL/min and a 5-95% gradient of B1 over 2.0 min. MS/MS is performed using electrospray ionization (ESI) interface in positive mode and specific MRM transitions for each compound.
The propensity of compounds 1-13 to be cleaved by Cathepsin B was evaluated according to an in vitro enzymatic cleavage assay using recombinant human Cathepsin B and UHPLC-MS/MS analysis as described in Section 2.3.5 above.

Row | SMILES | Ratio (T1/2 Compound/T1/2 Reference) | Cat B-induced drug release, times faster than reference (compared to Cys-MC-Val-Cit-PABC-MMAF) | half-life at 10 μM
1 | CC[C@H](C)[C@@H]([C@@H](CC(=O)N1CCC[C@H]1[C@H](OC)[C@@H](C)C(=O)N[C@@H](Cc1ccccc1)C(=O)N[C@@H](CCCNC(=N)N)C(=O)N[C@@H](CCCCNC(=O)CCOCCOCCOCCOCCOCCNC(=O)CCN1C(=O)CC(SC[C@H](NC(C)=O)C(=O)O)C1=O)C(=O)N[C@@H](Cc1ccccc1)C(=O)O)OC)N(C)C(=O)[C@@H](NC(=O)[C@H](C(C)C)N(C)C)C(C)C (stereo partly drawn) [compound 1, AF-Arg-Lys(PEG4-Mal-Cys-Ac)-Phe-OH] (NMe2Val-V[Dil][Dolaproine]FRK([PEG5-X2])F-OH) | 0.12 | – | –
2 | CC[C@H](C)[C@@H]([C@@H](CC(=O)N1CCC[C@H]1[C@H](OC)[C@@H](C)C(=O)N[C@@H](Cc1ccccc1)C(=O)N[C@@H](CCCNC(=N)N)C(=O)N[C@@H](Cc1ccccc1)C(=O)N[C@@H](CCCCNC(=O)CCOCCOCCOCCOCCNC(=O)CCN1C(=O)CC(SC[C@H](NC(C)=O)C(=O)O)C1=O)C(=O)O)OC)N(C)C(=O)[C@@H](NC(=O)[C@H](C(C)C)N(C)C)C(C)C (stereo partly drawn) [compound 3, AF-Arg-Phe-Lys(PEG4-Mal-Cys-Ac)-OH] (NMe2Val-V[Dil][Dolaproine]FRFK([PEG4-X2])-OH) | 0.11 | – | –
3 | COc1cc2cc(c1Cl)N(C)C(=O)C[C@H](OC(=O)[C@H](C)N(C)C(=O)CCSC1CC(=O)N(CCC(=O)N[C@@H](Cc3ccccc3)C(=O)N[C@@H](CCCCN)C(=O)N[C@@H](CCCCNC(=O)CCOCCOCCOCCOCCNC(=O)CCN3C(=O)CC(SC[C@H](NC(C)=O)C(=O)O)C3=O)C(=O)N[C@@H](Cc3ccccc3)C(=O)O)C1=O)[C@]1(C)O[C@H]1[C@H](C)[C@@H]1C[C@@](O)(NC(=O)O1)[C@H](OC)/C=C/C=C(\C)C2 (stereo partly drawn) [compound 5, DM1-Mal-Phe-Lys-Lys(PEG4-Mal-Cys-Ac)-Phe-OH] ({DM1Mal(CH2)2CO}-FKK([PEG4-X2])F-OH) | 0.05 | 20 times | –
4 | COc1cc2cc(c1Cl)N(C)C(=O)C[C@H](OC(=O)[C@H](C)N(C)C(=O)CCSC1CC(=O)N(CCC(=O)N[C@@H](Cc3ccccc3)C(=O)N[C@@H](CCCNC(N)=O)C(=O)N[C@@H](CCCCNC(=O)CCOCCOCCOCCOCCNC(=O)CCN3C(=O)CC(SC[C@H](NC(C)=O)C(=O)O)C3=O)C(=O)N[C@@H](Cc3ccccc3)C(=O)O)C1=O)[C@]1(C)O[C@H]1[C@H](C)[C@@H]1C[C@@](O)(NC(=O)O1)[C@H](OC)/C=C/C=C(\C)C2 (stereo partly drawn) [compound 6, DM1-Mal-Phe-Cit-Lys(PEG4-Mal-Cys-Ac)-Phe-OH] ({DM1Mal(CH2)2CO}-F[Cit]K([PEG4-X2])F-OH) | 0.02 | – | –
5 | COc1cc2cc(c1Cl)N(C)C(=O)C[C@H](OC(=O)[C@H](C)N(C)C(=O)CCSC1CC(=O)N(CCC(=O)N[C@@H](Cc3ccccc3)C(=O)N[C@@H](CCCNC(N)=O)C(=O)N[C@@H](Cc3ccccc3)C(=O)N[C@@H](CCCCNC(=O)CCOCCOCCOCCOCCNC(=O)CCN3C(=O)CC(SC[C@H](NC(C)=O)C(=O)O)C3=O)C(=O)O)C1=O)[C@]1(C)O[C@H]1[C@H](C)[C@@H]1C[C@@](O)(NC(=O)O1)[C@H](OC)/C=C/C=C(\C)C2 (stereo partly drawn) [compound 7, DM1-Mal-Phe-Cit-Phe-Lys(PEG4-Mal-Cys-Ac)-OH] ({DM1Mal(CH2)2CO}-F[Cit]FK([PEG4-X2])-OH) | 0.09 | – | –
6 | CC[C@H](C)[C@@H]([C@@H](CC(=O)N1CCC[C@H]1[C@H](OC)[C@@H](C)C(=O)N[C@@H](Cc1ccccc1)C(=O)N[C@@H](CCCNC(N)=O)C(=O)N[C@@H](CCCCNC(=O)CCOCCOCCOCCOCCNC(=O)CCN1C(=O)CC(SC[C@H](NC(C)=O)C(=O)O)C1=O)C(=O)N[C@@H](Cc1ccccc1)C(=O)O)OC)N(C)C(=O)[C@@H](NC(=O)[C@H](C(C)C)N(C)C)C(C)C (stereo partly drawn) [compound 8, AF-Cit-Lys(PEG4-Mal-Cys-Ac)-Phe-OH] (NMe2Val-V[Dil][Dolaproine]F[Cit]K([PEG4-X2])F-OH) | 0.09 | – | –
7 | COc1cc2cc(c1Cl)N(C)C(=O)C[C@H](OC(=O)[C@H](C)N(C)C(=O)CCSC1CC(=O)N(CC3CCC(C(=O)N[C@@H](Cc4ccccc4)C(=O)N[C@@H](CCCNC(N)=O)C(=O)N[C@@H](CCCCNC(=O)CCOCCOCCOCCOCCOCCNC(=O)CN4C(=O)CC(SC[C@H](NC(C)=O)C(=O)O)C4=O)C(=O)N[C@@H](Cc4ccc(O)cc4)C(=O)O)CC3)C1=O)[C@]1(C)O[C@H]1[C@H](C)[C@@H]1C[C@@](O)(NC(=O)O1)[C@H](OC)/C=C/C=C(\C)C2 (stereo partly drawn) [compound 11, DM1-Mcc-Phe-Cit-Lys(PEG5-Mal-Cys-Ac)-Tyr-OH] | 0.005 | – | < 1 min
8 | COc1cc2cc(c1Cl)N(C)C(=O)C[C@H](OC(=O)[C@H](C)N(C)C(=O)CCSC1CC(=O)N(CC3CCC(C(=O)N[C@@H](CCCNC(N)=O)C(=O)N[C@@H](CCCCNC(=O)CCOCCOCCOCCOCCOCCNC(=O)CN4C(=O)CC(SC[C@H](NC(C)=O)C(=O)O)C4=O)C(=O)N[C@@H](Cc4ccc(O)cc4)C(=O)O)CC3)C1=O)[C@]1(C)O[C@H]1[C@H](C)[C@@H]1C[C@@](O)(NC(=O)O1)[C@H](OC)/C=C/C=C(\C)C2 (stereo partly drawn) [compound 12, DM1-Mcc-Cit-Lys(PEG5-Mal-Cys-Ac)-Tyr-OH] | 0.00004 | – | < 1 min
